According to ChEMBL document CHEMBL4417631, “Oral peptide inhibitors of interleukin-23 receptor and their use to treat inflammatory bowel diseases” (2017):
pIC50: −log10 of the molar value. Where a SMILES comes first, the peptide text is derived from it. [ ]: non-standard residue; d: D form. hLeu = CC(C)CC[C@H](N)C(=O)O

Target: T1, Interleukin-23 receptor (Homo sapiens, UniProt Q5VWK5)
T1 sequence (Q5VWK5 whole entry): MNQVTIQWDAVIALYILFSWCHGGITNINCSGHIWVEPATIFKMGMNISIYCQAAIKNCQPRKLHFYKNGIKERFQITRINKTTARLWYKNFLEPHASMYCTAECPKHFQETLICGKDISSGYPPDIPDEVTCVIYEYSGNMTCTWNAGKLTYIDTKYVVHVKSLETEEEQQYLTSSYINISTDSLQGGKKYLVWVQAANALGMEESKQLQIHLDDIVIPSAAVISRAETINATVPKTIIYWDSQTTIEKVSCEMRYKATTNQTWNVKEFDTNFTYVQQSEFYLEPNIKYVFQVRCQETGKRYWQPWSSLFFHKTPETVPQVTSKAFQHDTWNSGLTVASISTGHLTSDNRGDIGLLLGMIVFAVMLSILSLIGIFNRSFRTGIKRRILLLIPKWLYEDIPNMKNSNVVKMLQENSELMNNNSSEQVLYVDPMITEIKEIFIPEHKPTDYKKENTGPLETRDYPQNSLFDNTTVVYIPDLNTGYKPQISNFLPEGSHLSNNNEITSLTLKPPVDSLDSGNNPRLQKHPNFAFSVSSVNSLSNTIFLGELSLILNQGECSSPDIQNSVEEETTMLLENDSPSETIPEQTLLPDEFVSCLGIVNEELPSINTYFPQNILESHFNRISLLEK
Assay: Inhibition of interleukin-23 binding to human interleukin-23 receptor incubated for 2 hrs by competitive binding ELISA

Structure (SMILES)	pIC50
CC(C)[C@H](NC(=O)[C@H](Cc1c[nH]c2ccccc12)NC(=O)[C@H](CC(=O)O)NC(=O)[C@H](C)NC(=O)[C@@H](N)CS)C(=O)N[C@@H](CS)C(=O)N[C@@H](Cc1ccc(O)cc1)C(=O)N[C@@H](Cc1c[nH]c2ccccc12)C(N)=O	< 6.00
CC(=O)N[C@@H](CS)C(=O)N[C@@H](CCC(N)=O)C(=O)N1CCC[C@H]1C(=O)N[C@@H](Cc1c[nH]c2ccccc12)C(=O)N[C@@H](CCC(N)=O)C(=O)N[C@@H](CS)C(=O)N[C@@H](Cc1ccc(O)cc1)C(=O)N[C@@H](Cc1c[nH]c2ccccc12)C(=O)N[C@@H](CCC(C)C)C(=O)N[C@@H](CCC(=O)O)C(=O)N[C@@H](CC(N)=O)C(=O)NCC(N)=O (Ac-CQPWQCYW[hLeu]ENG-NH2)	< 5.00
CC(=O)N[C@@H](CS)C(=O)N[C@@H](CCC(N)=O)C(=O)N[C@H](C(=O)N[C@@H](Cc1c[nH]c2ccccc12)C(=O)N[C@@H](CCC(N)=O)C(=O)N[C@@H](CS)C(=O)N1Cc2ccccc2C[C@H]1C(=O)N[C@@H](Cc1c[nH]c2ccccc12)C(=O)N[C@@H](CCC(C)C)C(=O)N[C@@H](CCC(=O)O)C(=O)N[C@@H](CC(N)=O)C(=O)NCC(N)=O)[C@@H](C)O	< 4.52
CCCCCCCCCCCCCCCC(=O)NCCCC[C@H](NC(=O)[C@H](Cc1c[nH]c2ccccc12)NC(=O)[C@H](Cc1ccc(O)cc1)NC(=O)[C@H](CS)NC(=O)[C@H](CCC(N)=O)NC(=O)[C@H](Cc1c[nH]c2ccccc12)NC(=O)[C@@H](NC(=O)[C@H](CCC(N)=O)NC(=O)[C@H](CS)NC(C)=O)[C@@H](C)O)C(=O)N[C@@H](CCC(=O)O)C(=O)N[C@@H](CC(N)=O)C(=O)NCC(N)=O	5.31
CC(=O)N[C@@H](CS)C(=O)N[C@@H](C)C(=O)N[C@@H](CC(=O)O)C(=O)N[C@@H](Cc1c[nH]c2ccccc12)C(=O)N[C@H](C(=O)N[C@@H](CS)C(=O)N[C@@H](Cc1ccc(O)cc1)C(=O)N[C@@H](Cc1c[nH]c2ccccc12)C(=O)N[C@@H](Cc1cnc[nH]1)C(=O)N[C@@H](CCCNC(=N)N)C(=O)N[C@@H](CS)C(=O)NCC(=O)N[C@@H](Cc1c[nH]c2ccccc12)C(=O)N[C@@H](Cc1c[nH]c2ccccc12)C(=O)NCC(=O)N[C@@H](CS)C(N)=O)C(C)C (Ac-CADWVCYWHRCGWWGC-NH2)	< 6.00
CC(=O)N[C@@H](CS)C(=O)N[C@@H](CCC(N)=O)C(=O)N[C@H](C(=O)N[C@@H](Cc1c[nH]c2ccccc12)C(=O)N[C@@H](CCC(N)=O)C(=O)N[C@@H](CS)C(=O)N[C@@H](CC1CCCCC1)C(=O)N[C@@H](Cc1c[nH]c2ccccc12)C(=O)N[C@@H](CCC(C)C)C(=O)N[C@@H](CCC(=O)O)C(=O)N[C@@H](CC(N)=O)C(=O)NCC(N)=O)[C@@H](C)O	5.22
C[C@H](NC(=O)[C@@H](N)CS)C(=O)N[C@@H](CC(=O)O)C(=O)N[C@@H](Cc1c[nH]c2ccccc12)C(=O)N(C)CC(=O)N[C@@H](CS)C(=O)N[C@@H](Cc1ccc(O)cc1)C(=O)N[C@@H](Cc1cccc2ccccc12)C(=O)N[C@@H](Cc1cnc[nH]1)C(=O)N[C@H](C(=O)N[C@@H](Cc1ccccc1)C(=O)O)[C@@H](C)O	< 6.00
CC(C)[C@H](NC(=O)[C@H](Cc1c[nH]c2ccccc12)NC(=O)[C@H](CC(N)=O)NC(=O)[C@H](CO)NC(=O)[C@@H](N)CS)C(=O)N[C@@H](CS)C(=O)N[C@@H](Cc1ccc(O)cc1)C(=O)N[C@@H](Cc1c[nH]c2ccccc12)C(=O)N[C@@H](Cc1cnc[nH]1)C(=O)N[C@H](C(=O)N[C@@H](Cc1ccc(O)cc1)C(=O)NCC(N)=O)[C@@H](C)O (H-CSNWVCYWHTYG-NH2)	> 6.30
CC(=O)NC1C/C=C\CCCC(C(=O)N[C@@H](Cc2ccc(O)cc2)C(=O)N[C@@H](Cc2c[nH]c3ccccc23)C(=O)N[C@@H](CCCNC(=N)N)C(=O)N[C@@H](CCCCN)C(=O)N[C@@H](Cc2ccccc2)C(=O)NCC(=O)NCCOCC(=O)N[C@H](CCCCN)C(N)=O)NC(=O)[C@H](CCC(N)=O)NC(=O)[C@H](Cc2c[nH]c3ccccc23)NC(=O)[C@H]([C@@H](C)O)NC(=O)[C@H](CCCNC(=N)N)NC1=O (stereo not given in full)	5.00 to 6.00
CC(=O)N[C@H](CCCCNC(=O)COCC(=O)NCCCC[C@@H](NC(C)=O)C(=O)N[C@@H](CS)C(=O)N[C@@H](C)C(=O)N[C@@H](CC(=O)O)C(=O)N[C@@H](Cc1c[nH]c2ccccc12)C(=O)N[C@H](C(=O)N[C@@H](CS)C(=O)N[C@@H](Cc1ccc(O)cc1)C(=O)N[C@@H](Cc1c[nH]c2ccccc12)C(=O)N[C@@H](Cc1cnc[nH]1)C(=O)N[C@H](C(=O)N[C@@H](Cc1ccccc1)C(=O)NCC(=O)O)[C@@H](C)O)C(C)C)C(=O)N[C@@H](CS)C(=O)N[C@@H](C)C(=O)N[C@@H](CC(=O)O)C(=O)N[C@@H](Cc1c[nH]c2ccccc12)C(=O)N[C@H](C(=O)N[C@@H](CS)C(=O)N[C@@H](Cc1ccc(O)cc1)C(=O)N[C@@H](Cc1c[nH]c2ccccc12)C(=O)N[C@@H](Cc1cnc[nH]1)C(=O)N[C@H](C(=O)N[C@@H](Cc1ccccc1)C(=O)NCC(=O)O)[C@@H](C)O)C(C)C	< 5.00

Further lines, results first:

pIC50	Structure (SMILES)
6.00 to 6.30	CC(C)[C@H](NC(=O)[C@H](Cc1c[nH]c2ccccc12)NC(=O)[C@H](CC(=O)O)NC(=O)[C@H](C)NC(=O)[C@@H](N)CS)C(=O)N[C@@H](CS)C(=O)N[C@@H](Cc1ccc(O)cc1)C(=O)N[C@@H](Cc1ccc2ccccc2c1)C(=O)N[C@@H](Cc1cnc[nH]1)C(=O)N[C@H](C(=O)N[C@@H](Cc1ccccc1)C(=O)NCC(N)=O)[C@@H](C)O
6.00 to 6.30	CC(=O)N[C@@H](CS)C(=O)N[C@@H](C)C(=O)N[C@@H](CC(=O)O)C(=O)N[C@@H](Cc1c[nH]c2ccccc12)C(=O)N[C@H](C(=O)N[C@@H](CS)C(=O)N[C@@H](Cc1ccc(O)cc1)C(=O)N[C@@H](Cc1cccc2ccccc12)C(=O)N[C@H](C(=O)N[C@H](C(=O)N[C@@H](Cc1ccccc1)C(=O)NCC(N)=O)[C@@H](C)O)C(C)C)C(C)C
6.50	CC(=O)N[C@@H](CS)C(=O)N[C@@H](CCC(N)=O)C(=O)N[C@H](C(=O)N[C@@H](Cc1c[nH]c2ccccc12)C(=O)N[C@@H](CCC(N)=O)C(=O)N[C@@H](CS)C(=O)N[C@@H](Cc1ccc(O)cc1)C(=O)N[C@@H](Cc1c[nH]c2ccccc12)C(=O)N[C@H](CC(C)C)C(=O)N[C@@H](CCC(=O)O)C(=O)N[C@@H](CC(N)=O)C(=O)NCC(N)=O)[C@@H](C)O
5.22	CC(=O)N[C@@H](CS)C(=O)N[C@@H](C)C(=O)N[C@@H](CC(=O)O)C(=O)N[C@@H](Cc1c[nH]c2ccccc12)C(=O)N[C@H](C(=O)N[C@@H](CS)C(=O)N[C@@H](Cc1ccc(O)cc1)C(=O)N[C@@H](Cc1cc(F)cc(F)c1)C(=O)N[C@@H](CCCN)C(=O)N[C@@H](CN)C(=O)N[C@@H](Cc1ccccc1)C(=O)NCC(=O)NCCOCC(=O)N[C@H](CCCCN)C(N)=O)C(C)C
< 6.00	CC(=O)N[C@@H](CS)C(=O)N[C@@H](CCC(N)=O)C(=O)N[C@H](C(=O)N[C@@H](Cc1c[nH]c2ccccc12)C(=O)N[C@@H](CCC(N)=O)C(=O)N[C@@H](CS)C(=O)N[C@@H](Cc1ccc(O)cc1)C(=O)N[C@@H](Cc1c[nH]c2ccccc12)C(=O)N(C)[C@@H](CCC(=O)O)C(=O)N[C@@H](CC(N)=O)C(=O)NCC(=O)NCCOCC(=O)N[C@H](CCCCN)C(=O)O)[C@@H](C)O
> 6.30	CC(=O)N[C@@H](CS)C(=O)N[C@@H](C)C(=O)N[C@@H](CC(=O)O)C(=O)N[C@@H](Cc1c[nH]c2ccccc12)C(=O)N[C@H](C(=O)N[C@@H](CS)C(=O)N[C@@H](Cc1ccc(O)cc1)C(=O)N[C@@H](Cc1c[nH]c2ccccc12)C(=O)N[C@@H](Cc1cnc[nH]1)C(=O)N[C@H](C(=O)N[C@@H](Cc1ccccc1)C(=O)NCC(=O)N1CC[C@H]1C(=O)N[C@H](CCCCN)C(=O)O)[C@@H](C)O)C(C)C
5.22	CC(=O)N[C@@H](CS)C(=O)N[C@@H](CCC(N)=O)C(=O)N[C@H](C(=O)N[C@@H](Cc1c[nH]c2ccccc12)C(=O)N[C@@H](CCC(N)=O)C(=O)N[C@@H](CS)C(=O)N[C@@H](Cc1ccc(O)cc1)C(=O)N[C@@](C)(Cc1c[nH]c2ccccc12)C(=O)N[C@@H](CCCNC(=N)N)C(=O)N[C@H](C(=O)N[C@@H](CC(N)=O)C(=O)NCC(=O)NCCC(=O)N[C@H](CCCCN)C(N)=O)C(C)C)[C@@H](C)O
5.12	CSC[C@H](NC(=O)[C@H](CCC(N)=O)NC(=O)[C@H](Cc1c[nH]c2ccccc12)NC(=O)[C@@H](NC(=O)[C@H](CCCNC(=N)N)NC(=O)[C@H](C)NC(C)=O)[C@@H](C)O)C(=O)N[C@@H](Cc1ccc(O)cc1)C(=O)N[C@@H](Cc1c[nH]c2ccccc12)C(=O)N[C@@H](CCCNC(=N)N)C(=O)N[C@@H](CCCCN)C(=O)N[C@@H](Cc1ccccc1)C(=O)NCC(=O)NCCOCC(=O)N[C@H](CCCCN)C(N)=O
6.00 to 6.30	CSCC[C@H](NC(=O)[C@H](Cc1c[nH]c2ccccc12)NC(=O)[C@H](CC(=O)O)NC(=O)[C@H](C)NC(=O)[C@@H](N)CS)C(=O)N[C@@H](CS)C(=O)N[C@@H](Cc1ccc(O)cc1)C(=O)N[C@@H](Cc1c[nH]c2ccccc12)C(=O)N[C@@H](Cc1cnc[nH]1)C(=O)N[C@@H](CCC(=O)O)C(=O)N[C@@H](Cc1ccc(O)cc1)C(=O)NCC(N)=O (H-CADWMCYWHEYG-NH2)
< 6.00	CC(=O)N[C@@H](CS)C(=O)N[C@@H](C)C(=O)N[C@@H](CC(=O)O)C(=O)N[C@@H](Cc1c[nH]c2ccccc12)C(=O)N[C@H](C(=O)N[C@@H](CS)C(=O)N[C@@H](Cc1ccc(O)cc1)C(=O)N[C@@H](Cc1c[nH]c2ccccc12)C(=O)N[C@@H](CCCCN)C(=O)N[C@H](C(=O)N[C@@H](Cc1ccccc1)C(=O)NCC(=O)O)[C@@H](C)O)C(C)C
